# Assays:
# [1] = target: T1, efflux protein (Escherichia coli, UniProt P02980); assay: everted membrane vesicle assay, blocking activity of 13-S-derivatives; format: biochemical; conditions: blocking activity against the efflux protein, everted membrane vesicle assay
# T1 sequence (P02980 1-401): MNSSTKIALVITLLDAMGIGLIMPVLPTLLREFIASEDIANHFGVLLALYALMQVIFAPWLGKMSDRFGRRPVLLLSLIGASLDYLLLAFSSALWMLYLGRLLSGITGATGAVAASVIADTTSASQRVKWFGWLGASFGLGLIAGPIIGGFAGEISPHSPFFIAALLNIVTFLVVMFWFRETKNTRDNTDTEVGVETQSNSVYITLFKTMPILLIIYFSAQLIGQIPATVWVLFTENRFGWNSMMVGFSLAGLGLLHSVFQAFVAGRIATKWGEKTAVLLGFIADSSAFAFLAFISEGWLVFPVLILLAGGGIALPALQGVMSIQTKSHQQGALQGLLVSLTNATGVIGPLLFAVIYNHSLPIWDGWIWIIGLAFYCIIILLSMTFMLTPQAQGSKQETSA
# [2] = test system: E. coli Tc^s (MI 308-226); assay: susceptibility testing MIC/MLC, drug alone; format: cell-based; conditions: Tc^s (MI 308-226), drug alone
# [3] = test system: E. coli Class A Tc^r (DI-299); format: cell-based; conditions: drug alone
# [4] = test system: E. coli Class B Tc^r (DI-209); format: cell-based; conditions: drug alone
# [5] = test system: E. faecalis Tc^s (ATCC9790r); assay: susceptibility testing MIC/MLC, drug alone; format: cell-based
# [6] = test system: E. faecalis Tc^r (L) ATCC9790r/Tell.); assay: susceptibility testing MIC/MLC, drug alone; format: cell-based; conditions: Tc^r (L) ATCC9790r/Tell.), drug alone
# [7] = test system: E. coli DI-299 (Tet A); assay: MIC/MLC chart, analog with and without doxycycline; format: cell-based; set-up: key to growth/killing, Analog + Doxy / growth/killing, Doxy Control / growth/killing, Analog Control / growth in MIC/MLC chart: +=growth; 0=no growth (MIC); ↓=killing; ? =99.9% killing (MLC); □=no growth, but no microbiologic testing;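 note: bacterial growth inhibition and killing in broth, each agent tested alone or combined with doxycycline across two-fold serial dilutions, overnight incubation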
# [8] = test system: S. aureus 4250 (Tet K); assay: MIC/MLC chart, analog with and without doxycycline; format: cell-based
# [9] = test system: E. faecalis 158 (Tet L); assay: MIC/MLC chart, analog with and without doxycycline; format: cell-based
# [10] = test system: E. faecalis 211 (Tet M); assay: MIC/MLC chart, analog with and without doxycycline; format: cell-based
# [11] = Analog Control: analog alone 1.56 μg/ml
# [12] = Analog Control: analog alone .195 μg/ml
# [13] = Analog Control: analog alone .39 μg/ml
# [14] = Analog Control: analog alone .78 μg/ml
# [15] = analog 1.56 μg/ml + doxycycline 1.55 μg/ml
# [16] = analog 1.56 μg/ml + doxycycline 3.1 μg/ml
# [17] = analog 1.56 μg/ml + doxycycline 6.2 μg/ml
# [18] = analog .195 μg/ml + doxycycline 1.56 μg/ml
# [19] = analog .195 μg/ml + doxycycline 3.12 μg/ml
# [20] = analog .195 μg/ml + doxycycline 6.25 μg/ml
# [21] = analog .195 μg/ml + doxycycline 12.5 μg/ml
# [22] = analog .39 μg/ml + doxycycline 1.56 μg/ml
# [23] = analog .39 μg/ml + doxycycline 3.12 μg/ml
# [24] = analog .39 μg/ml + doxycycline 6.25 μg/ml
# [25] = analog .39 μg/ml + doxycycline 12.5 μg/ml
# [26] = analog .78 μg/ml + doxycycline 1.56 μg/ml
# [27] = analog .78 μg/ml + doxycycline 3.12 μg/ml
# [28] = analog .78 μg/ml + doxycycline 6.23 μg/ml
smiles,measurement,setting,value
Cc1ccc(CSCC2c3cccc(O)c3C(=O)C3=C(O)C4(O)C(=O)C(C(N)=O)=C(O)C(N(C)C)C4C(O)C32)cc1 (centres unmarked) [p-Me-Benzyl],Ki,[1],1.2 µg/mL
CN(C)C1C(O)=C(C(N)=O)C(=O)C2(O)C(O)=C3C(=O)c4c(O)cccc4C(CSCc4ccc(Cl)cc4)C3C(O)C12 (centres unmarked) [p-Cl-Benzyl],Ki,[1],1.5 µg/mL
CC(C)SCC1c2cccc(O)c2C(=O)C2=C(O)C3(O)C(=O)C(C(N)=O)=C(O)C(N(C)C)C3C(O)C21 (centres unmarked) [Isopropyl],Ki,[1],771 nM
same,MIC,[2],22 ± 2 µg
same,MLC,[2]; kills 99.9%,50 µg
same,MIC,[3],45 ± 6 µg
same,MLC,[3]; kills 99.9%,60 µg
same,MIC,[4],35 ± 6 µg
same,MLC,[4]; kills 99.9%,46 ± 16 µg
same,MIC,[5],3 ± 1 µg
same,MIC,[6],3 ± 1 µg
CCCCSCC1c2cccc(O)c2C(=O)C2=C(O)C3(O)C(=O)C(C(N)=O)=C(O)C(N(C)C)C3C(O)C21 (centres unmarked) [Butyl],Ki,[1],0.5 µg/mL
CN(C)C1C(O)=C(C(N)=O)C(=O)C2(O)C(O)=C3C(=O)c4c(O)cccc4C(CSC(C)(C)C)C3C(O)C12 (centres unmarked) [t-Butyl],Ki,[1],0.3 µg/mL
CCCSCC1c2cccc(O)c2C(=O)C2=C(O)C3(O)C(=O)C(C(N)=O)=C(O)C(N(C)C)C3C(OC(=O)CC)C21 (centres unmarked) [Cmpd 13-propyl-thio-5-proprionate],growth in MIC/MLC chart,[7]; [11],+
same,growth in MIC/MLC chart,[7]; Analog Control: analog alone 3.12 μg/ml,+
same,growth in MIC/MLC chart,[7]; Analog Control: analog alone 6.25 μg/ml,+
same,growth in MIC/MLC chart,[7]; Analog Control: analog alone 12.5 μg/ml,+
same,growth in MIC/MLC chart,[7]; Analog Control: analog alone 25.0 μg/ml,+
same,growth in MIC/MLC chart,[7]; Analog Control: analog alone 50.00 μg/ml,+
same,growth in MIC/MLC chart,[7]; [12],+
same,growth in MIC/MLC chart,[7]; [13],+
same,growth in MIC/MLC chart,[7]; [14],+
same,growth in MIC/MLC chart,[7]; [15],+
same,growth in MIC/MLC chart,[7]; [16],+
same,growth in MIC/MLC chart,[7]; [17],+
same,growth in MIC/MLC chart,[7]; analog 3.12 μg/ml + doxycycline 1.53 μg/ml,+
same,growth in MIC/MLC chart,[7]; analog 3.12 μg/ml + doxycycline 3.05 μg/ml,+
same,growth in MIC/MLC chart,[7]; analog 3.12 μg/ml + doxycycline 6.1 μg/ml,+
same,growth in MIC/MLC chart,[7]; analog 6.25 μg/ml + doxycycline 3.0 μg/ml,+
same,growth in MIC/MLC chart,[7]; analog 6.25 μg/ml + doxycycline 5.9 μg/ml,+
same,growth in MIC/MLC chart,[7]; analog 6.25 μg/ml + doxycycline […],+
same,growth in MIC/MLC chart,[7]; analog 12.5 μg/ml + doxycycline 2.8 μg/ml,+
same,growth in MIC/MLC chart,[7]; analog 12.5 μg/ml + doxycycline 5.5 μg/ml,+
same,growth in MIC/MLC chart,[7]; analog 12.5 μg/ml + doxycycline […],+
same,growth in MIC/MLC chart,[7]; analog 25 μg/ml + doxycycline 2.4 μg/ml,+
same,growth in MIC/MLC chart,[7]; analog 25 μg/ml + doxycycline 4.7 μg/ml,+
same,growth in MIC/MLC chart,[7]; analog 25 μg/ml + doxycycline […],+
same,growth in MIC/MLC chart,[7]; analog 50 μg/ml + doxycycline 1.56 μg/ml,+
same,growth in MIC/MLC chart,[7]; analog 50 μg/ml + doxycycline 3.12 μg/ml,+
same,growth in MIC/MLC chart,[7]; analog 50 μg/ml + doxycycline .78 μg/ml,+
same,growth in MIC/MLC chart,[7]; [18],+
same,growth in MIC/MLC chart,[7]; [19],+
same,growth in MIC/MLC chart,[7]; [20],+
same,growth in MIC/MLC chart,[7]; [21],+
same,growth in MIC/MLC chart,[7]; [22],+
same,growth in MIC/MLC chart,[7]; [23],+
same,growth in MIC/MLC chart,[7]; [24],+
same,growth in MIC/MLC chart,[7]; [25],+
same,growth in MIC/MLC chart,[7]; [26],+
same,growth in MIC/MLC chart,[7]; [27],+
same,growth in MIC/MLC chart,[7]; [28],+
same,growth in MIC/MLC chart,[7]; analog .78 μg/ml + doxycycline 12.4 μg/ml,+
same,growth in MIC/MLC chart,[8]; [12],+
same,growth in MIC/MLC chart,[8]; [18],+
same,growth in MIC/MLC chart,[9]; [12],+
same,growth in MIC/MLC chart,[9]; [13],+
same,growth in MIC/MLC chart,[9]; [14],+
same,growth in MIC/MLC chart,[9]; [18],+
same,growth in MIC/MLC chart,[9]; [19],+
same,growth in MIC/MLC chart,[10]; [11],+
same,growth in MIC/MLC chart,[10]; [12],+
same,growth in MIC/MLC chart,[10]; [13],+
same,growth in MIC/MLC chart,[10]; [14],+
same,growth in MIC/MLC chart,[10]; [15],+
same,growth in MIC/MLC chart,[10]; [16],+
same,growth in MIC/MLC chart,[10]; [17],+
same,growth in MIC/MLC chart,[10]; [18],+
same,growth in MIC/MLC chart,[10]; [19],+
same,growth in MIC/MLC chart,[10]; [20],+
same,growth in MIC/MLC chart,[10]; [21],+
same,growth in MIC/MLC chart,[10]; [22],+
same,growth in MIC/MLC chart,[10]; [23],+
same,growth in MIC/MLC chart,[10]; [24],+
same,growth in MIC/MLC chart,[10]; [25],+
same,growth in MIC/MLC chart,[10]; [26],+
same,growth in MIC/MLC chart,[10]; [27],+
same,growth in MIC/MLC chart,[10]; [28],+
